From PubChem BioAssay AID504927 (NMMLSC, 2011)
“And” between values parts separate entries of the source, which are not always exact repeats. Identical values can stand only once. The source made the active and inactive calls.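 Rule for the calls: active = EC50 below 10 microM from an accepted curve fit, fit percent over 10, EC50 error under a fifth; inactive = the rest.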

System: not listed separately
Experiment: reduction of age-related superoxide, S. cerevisiae – additional hits, confirmation, dose response (AID 504927)
Details: S. cerevisiae aged culture, superoxide DHE fluorescence, 7 d; at 33.1 µM (top of the series)
In the case of `CCC(=Nc1ccccc1O)C1=C(O)CC(c2ccccc2)CC1=O` (stereo not drawn), the percent response (superoxide), lower = inhibition is reported as 87.9% (inactive).
With `COc1ccc2nc3cccc(OC)c3nc2c1` the percent response (superoxide), lower = inhibition was 79.2% (inactive).
With `C=CCOn1c(=O)c(-c2cccs2)[n+]([O-])c2ccccc21` the percent response (superoxide), lower = inhibition was 83.4% (inactive).
For `CCN(CC)C(=O)CSc1nnc(-c2cccc(OC)c2)o1`, the percent response (superoxide), lower = inhibition was 108% (inactive).
With `Cc1ccc(-c2nn(C(C)(C)C)c3ncnc(N)c23)cc1` the percent response (superoxide), lower = inhibition was 44.3% (inactive).
In the case of `COc1ccc2cc(C3CC(c4ccco4)=NN3S(=O)(=O)c3ccccc3)c(Cl)nc2c1` (stereo not drawn), the percent response (superoxide), lower = inhibition is reported as 110% (inactive).
For `CCc1nc(NC(C)(C)C)c2cnn(-c3ccccc3)c2n1`, the percent response (superoxide), lower = inhibition was 119% (inactive).
With `Cc1ccccc1NC(=O)c1cccc2nc3ccccc3nc12` the percent response (superoxide), lower = inhibition was 104% (inactive).
For `CC(C)CSc1nnc2c3ccccc3n(C)c2n1`, the percent response (superoxide), lower = inhibition was 105% (inactive).
With `NC(=O)CSc1nnc(-c2ccc([N+](=O)[O-])cc2)o1` the percent response (superoxide), lower = inhibition was 99.1% (inactive).
With `N#CCc1nn(-c2ccccc2)c2ncnc(N)c12` the percent response (superoxide), lower = inhibition was 95.5% (inactive).
For `CN(C)CCNc1ncnc2c1cnn2-c1ccc(Cl)cc1`, the percent response (superoxide), lower = inhibition was 97.4% (inactive).
For `c1ccc2nc3ccccc3nc2c1`, the percent response (superoxide), lower = inhibition was 88.6% (inactive).
In the case of `Cn1c(O)c(C(=Nc2ccc(F)cc2)c2ccccc2Cl)c(=O)n(C)c1=O`, the percent response (superoxide), lower = inhibition is reported as 113% (inactive).
In the case of `FC(F)(F)c1nc2cc3nc4ccccc4[nH]c3cc2n1`, the percent response (superoxide), lower = inhibition is reported as 72.2% (inactive).
For `C#C[C@]1(O)[C@H](O)CC2C3CC[C@H]4C[C@@H](O)CC[C@]4(C)C3CC[C@@]21C` (stereo partly drawn), the percent response (superoxide), lower = inhibition was 117% (inactive).
In the case of `O=C(CN1CCN(c2ccccn2)CC1)Nc1ccccc1F`, the percent response (superoxide), lower = inhibition is reported as 108% (inactive).
In the case of `O=C(/C=C/c1ccccc1)NC(=S)NNC(=O)Cc1cccs1`, the percent response (superoxide), lower = inhibition is reported as 78.9% (inactive).
In the case of `COc1ccc2nc3ccccc3[n+]([O-])c2c1`, the percent response (superoxide), lower = inhibition is reported as 107% (inactive).
In the case of `CCn1c2ccccc2c2n[nH]c(=S)nc21`, the percent response (superoxide), lower = inhibition is reported as 94.7% (inactive).
For `O=c1[nH]c(O)c(C=Nc2ccc(F)c(Cl)c2)c(=O)[nH]1`, the percent response (superoxide), lower = inhibition was 97.1% (inactive).
In the case of `O=C(/C=C/c1cccs1)NC(=S)NNC(=O)Cc1cccs1`, the percent response (superoxide), lower = inhibition is reported as 132% (inactive).
With `COc1ccc2c3c(cccc13)N(C)N=C2C` the percent response (superoxide), lower = inhibition was 78.1% (inactive).
With `Cc1cc2nc3ccc(N(C)C)cc3nc2cc1N` the percent response (superoxide), lower = inhibition was 82.4% (inactive).
With `CC(C)(C)Nc1ncnc2c1cnn2-c1ccccc1` the percent response (superoxide), lower = inhibition was 110% (inactive).
With `CNC(=O)c1cccc2nc3ccccc3nc12` the percent response (superoxide), lower = inhibition was 52% (inactive).
For `COc1cccc2nc3cc(C)c(C)cc3nc12`, the percent response (superoxide), lower = inhibition was 78.3% (inactive).
In the case of `C=C1C(O)[C@@H]2O[C@]3(CC[C@H](/C=C/C(C)[C@@H]4CC(C)=CC5(O[C@H](C[C@@](C)(O)C(=O)O)CCC5O)O4)O3)CC[C@H]2O[C@@H]1C(O)CC(C)[C@H]1OC2(CCCCO2)CCC1C` (stereo partly drawn), the percent response (superoxide), lower = inhibition is reported as 84% (inactive).
With `CC(C)OC(=O)CSc1nnc(-c2ccc(Cl)cc2Cl)o1` the percent response (superoxide), lower = inhibition was 128% (inactive).
With `Cc1cc(C)cc(NC(=O)CN2CCN(c3ccccn3)CC2)c1` the percent response (superoxide), lower = inhibition was 95.7% (inactive).
For `CC(=O)[C@@]1(O)CCC2C3CC[C@H]4C[C@@H](O)CC[C@]4(C)C3CC[C@@]21C` (stereo partly drawn), the percent response (superoxide), lower = inhibition was 107% (inactive).
In the case of `C[C@]12CCC3C(CC[C@H]4C[C@@H](O)CC[C@]34C)C1CC[C@@H]2OC(=O)[C@H](N)CCCCN` (stereo partly drawn), the percent response (superoxide), lower = inhibition is reported as 96.2% (inactive).
For `C[C@]12CCC3C(CC[C@H]4C[C@@H](O)CC[C@]34C)[C@H]1CC[C@H]2O` (stereo partly drawn), the percent response (superoxide), lower = inhibition was 113% (inactive).
In the case of `Cc1cc(C)c2[nH]c3nc(SCC(=O)O)nnc3c2c1`, the percent response (superoxide), lower = inhibition is reported as 111% (inactive).
In the case of `N#CC(c1nc2ccccc2nc1N1CCCC1)S(=O)(=O)c1ccccc1` (stereo not drawn), the percent response (superoxide), lower = inhibition is reported as 128% (inactive).
With `Oc1cccc2nc3ccccc3nc12` the percent response (superoxide), lower = inhibition was 129% (inactive).
With `CC(=O)O[C@H]1CCC2C3CC[C@H]4[C@@H](O)[C@H](O)CC[C@]4(C)C3CC[C@@]21C` (stereo partly drawn) the percent response (superoxide), lower = inhibition was 93.3% (inactive).
For `C=CCSc1nnc(-c2ccc([N+](=O)[O-])cc2)o1`, the percent response (superoxide), lower = inhibition was 63.5% (inactive).
In the case of `O=C(Nc1ccc2nc3ccccc3nc2c1)c1ccc(Br)cc1`, the percent response (superoxide), lower = inhibition is reported as 104% (inactive).
With `COc1ccc2c(c1)c1nnc(SC)nc1n2C` the percent response (superoxide), lower = inhibition was 54.2% (inactive).
In the case of `CCCCCNC(=O)C(=O)C1C(=O)Nc2ccccc21` (stereo not drawn), the percent response (superoxide), lower = inhibition is reported as 86.1% (inactive).

System: S. cerevisiae aged culture, superoxide DHE fluorescence, 7 d
Experiment: as above
Details: not given
In the case of `O=C1c2c(O)ccc(O)c2C(=O)c2c(NCCNCCO)ccc(NCCNCCO)c21`, the EC50 is reported as 6.58 µM.
With `O=C(OCc1c(F)cccc1Cl)c1cnc2ccccc2n1` the EC50 was 5.98 µM.
In the case of `COC(=O)c1cccc2nc3c(C(C)O)cccc3nc12` (stereo not drawn), the EC50 is reported as 0.91 µM.
For `CNc1ccc2nc3ccccc3[n+](C)c2c1`, the EC50 was 2.11 µM.
For `CCN(CC)c1ccc2nc3ccc(N)cc3[n+](-c3ccccc3)c2c1`, the EC50 was 2.31 µM.
Work on `CCN(CC)C(=O)c1cccc2nc3ccccc3nc12` yielded an EC50 of 1.52 µM.
In the case of `CSc1nnc2c3cc(F)ccc3n(C)c2n1`, the EC50 is reported as 5.86 µM.
Work on `O=C(c1cccc2nc3ccccc3nc12)N1CCOCC1` yielded an EC50 of 1.75 µM.
Work on `COc1ccc2nc3ccccc3nc2c1NC(=O)c1ccccc1Cl` yielded an EC50 of 0.06 µM.
In the case of `C[n+]1c2ccccc2nc2ccc(NCCO)cc21`, the EC50 is reported as 4.52 µM.
For `C[C@]12CCC3C(CC[C@H]4C[C@H](O)CC[C@]34C)C1C[C@@H](CCCCl)[C@@H]2O` (stereo partly drawn), the EC50 was 0.53 µM.
`OCC[n+]1c2ccccc2nc2ccc(N3CCOCC3)cc21` gave an EC50 of 2.61 µM.
For `Nc1cc2nc3ccccc3nc2cc1N`, the EC50 was 3.5 µM.
For `[O-][n+]1c2ccccc2[n+]([O-])c2cc(O)ccc21`, the EC50 was 1.11 µM.
`CCN(CC)C(=O)c1ccc2nc3ccccc3nc2c1` showed an EC50 of 0.79 µM.
Molecule `COc1ccc2nc3ccccc3nc2c1N` has an EC50 of 1.13 µM.
`O=C(Nc1cccc(Cl)c1)Nc1ccc2nccnc2c1` showed an EC50 of 0.51 µM.
With `C/C(=N\Nc1ncnc2sc(C)c(C)c12)c1ccccn1` the EC50 was 10.4 µM (inactive).
`O=C(Nc1ccc2nc3ccccc3nc2c1)c1ccccc1` gave an EC50 of 0.08 µM.
`c1ccc2[nH]c3cc4ncnc4cc3nc2c1` gave an EC50 of 0.13 µM.
Work on `C[C@]12CCC3C(CC[C@H]4C[C@H](O)CC[C@]34C)C1CCC2=O` (stereo partly drawn) yielded an EC50 of 0.03 µM.
For `C[C@@]12C(=O)OC(=O)[C@]1(C)C1CCC2O1`, the EC50 was 0.18 µM.
Work on `CC(C)(C)n1nc(-c2ccc(Cl)cc2)c2c(N)ncnc21` yielded an EC50 of 4.23 µM.
In the case of `CC(C)(C)n1nc(-c2ccc(F)cc2)c2c(N)ncnc21`, the EC50 is reported as 2.44 µM.
With `O=C(O)c1cnc2ccccc2n1` the EC50 was 13.4 µM (inactive).
With `Cc1cccc2nc3ccccc3nc12` the EC50 was 2.72 µM.
`Cn1c(=O)[nH]c2nncnc2c1=O` gave an EC50 of 3.4 µM.
For `CC(C)OC(=O)c1ccc2nc3ccccc3nc2c1`, the EC50 was 12.6 µM (inactive).
With `CC(=O)Nc1ccc2nc3ccccc3nc2c1` the EC50 was 0.17 µM.
In the case of `CSc1nnc(-c2ccc([N+](=O)[O-])cc2)o1`, the EC50 is reported as 13.1 µM (inactive).
With `COc1ccc2nc3ccccc3nc2c1` the EC50 was 0.37 µM and 0.85 µM.
With `C#CCSc1nnc(-c2ccc([N+](=O)[O-])cc2)o1` the EC50 was 5.16 µM.
